Results: patent publication US20120010075A1 (priority 2009, published 2012)

system: Leptosphaeria nodorum (LEPTNO); assay: Isolated metal-hydrazone complexes versus parent hydrazones, in vitro, Leptosphaeria nodorum (Example 31, Table 7); type: cell-based; details: Parastagonospora nodorum; 0.1 μg/mL; copper-minus medium; 72 h

| SMILES | inhibition at 0.1 µg/mL |
| --- | --- |
| O=C(N/N=C/c1cc(Cl)cc(C(F)(F)F)c1O)c1ccc(Cl)cc1 [Example 381] | 43.9% |
| O=C(N/N=C/c1c(O)cccc1Cl)c1ccc(Cl)cc1 [Example 403] | 12.1% |
| Cc1ccc(C(=O)N/N=C/c2cc(Br)cc(F)c2O)cc1 [Example 411] | 32.1% |
| O=C(N/N=C/c1cc(Br)cc(F)c1O)c1ccc(C(F)(F)F)cc1 [Example 412] | 40.4% |
| O=C(N/N=C/c1cccc(Cl)c1O)c1ccc(Cl)cc1 [Example 428] | 29.9% |
| O=C(N/N=C/c1cc(C(F)(F)F)ccc1O)c1ccc(Cl)cc1 [Example 440] | 23.8% |
| O=C(N/N=C/c1c(C(F)(F)F)ccc(Cl)c1O)c1ccc(Cl)cc1 [Example 452] | 19.3% |

system: Phytophthora infestans; assay: not given; type: in vivo, Phytophthora infestans on tomato; details: hydrazone 50 ppm with 50 μM CuCl2.2H2O, applied 24 h before inoculation; assessed 7 days after inoculation; tomato late blight

| SMILES | TLB % Control |
| --- | --- |
| O=C(N/N=C/c1cc(Cl)cc(C(F)(F)F)c1O)c1ccc(Cl)cc1 [Example 381] | 100.0% |
| O=C(N/N=C/c1c(O)cccc1Cl)c1ccc(Cl)cc1 [Example 403] | 97.0% |
| Cc1ccc(C(=O)N/N=C/c2cc(Br)cc(F)c2O)cc1 [Example 411] | 85.0% |
| O=C(N/N=C/c1cc(Br)cc(F)c1O)c1ccc(C(F)(F)F)cc1 [Example 412] | 100.0% |
| O=C(N/N=C/c1cccc(Cl)c1O)c1ccc(Cl)cc1 [Example 428] | 97.0% |
| O=C(N/N=C/c1cc(C(F)(F)F)ccc1O)c1ccc(Cl)cc1 [Example 440] | 98.0% |
| O=C(N/N=C/c1c(C(F)(F)F)ccc(Cl)c1O)c1ccc(Cl)cc1 [Example 452] | 100.0% |

system: Leptosphaeria nodorum (LEPTNO); assay: In vitro fungitoxicity of hydrazones with and without copper towards Leptosphaeria nodorum (Example 26); type: cell-based; details: Parastagonospora nodorum, 72 h, copper-minus medium; test compound Concn. 0.05 μg/mL; 72 h at 25° C.; read-out: LEPTNO % Inhn. Minus Copper Observed

| SMILES | inhibition of growth at 0.05 µg/mL |
| --- | --- |
| O=C(N/N=C/c1cc(Cl)cc(C(F)(F)F)c1O)c1ccc(Cl)cc1 [Example 381] | 31.8% |
| O=C(N/N=C/c1c(O)cccc1Cl)c1ccc(Cl)cc1 [Example 403] | 0% |
| Cc1ccc(C(=O)N/N=C/c2cc(Br)cc(F)c2O)cc1 [Example 411] | 8.2% |
| O=C(N/N=C/c1cc(Br)cc(F)c1O)c1ccc(C(F)(F)F)cc1 [Example 412] | 7.7% |
| O=C(N/N=C/c1cccc(Cl)c1O)c1ccc(Cl)cc1 [Example 428] | 44.1% |
| O=C(N/N=C/c1cc(C(F)(F)F)ccc1O)c1ccc(Cl)cc1 [Example 440] | 2.9% |
| O=C(N/N=C/c1c(C(F)(F)F)ccc(Cl)c1O)c1ccc(Cl)cc1 [Example 452] | 12.9% |

same assay, conditions: copper-plus medium (CuCl2 10 μM); test compound Concn. 0.05 μg/mL; 72 h at 25° C.

| SMILES | LEPTNO % Inhn. Plus Copper Observed |
| --- | --- |
| O=C(N/N=C/c1cc(Cl)cc(C(F)(F)F)c1O)c1ccc(Cl)cc1 [Example 381] | 98.6% |
| O=C(N/N=C/c1c(O)cccc1Cl)c1ccc(Cl)cc1 [Example 403] | 97.3% |
| Cc1ccc(C(=O)N/N=C/c2cc(Br)cc(F)c2O)cc1 [Example 411] | 97.9% |
| O=C(N/N=C/c1cc(Br)cc(F)c1O)c1ccc(C(F)(F)F)cc1 [Example 412] | 97.8% |
| O=C(N/N=C/c1cccc(Cl)c1O)c1ccc(Cl)cc1 [Example 428] | 98.4% |
| O=C(N/N=C/c1cc(C(F)(F)F)ccc1O)c1ccc(Cl)cc1 [Example 440] | 100.0% |
| O=C(N/N=C/c1c(C(F)(F)F)ccc(Cl)c1O)c1ccc(Cl)cc1 [Example 452] | 100.0% |

system: not given; assay: not given; details: not given

| SMILES | melting point |
| --- | --- |
| O=C(N/N=C/c1cc(Cl)cc(C(F)(F)F)c1O)c1ccc(Cl)cc1 [Example 381] | 232 to 234 °C |
| O=C(N/N=C/c1c(O)cccc1Cl)c1ccc(Cl)cc1 [Example 403] | 273 to 277 °C |
| Cc1ccc(C(=O)N/N=C/c2cc(Br)cc(F)c2O)cc1 [Example 411] | 228 to 229 °C |
| O=C(N/N=C/c1cc(Br)cc(F)c1O)c1ccc(C(F)(F)F)cc1 [Example 412] | 240 to 241 °C |
| O=C(N/N=C/c1cccc(Cl)c1O)c1ccc(Cl)cc1 [Example 428] | 217 to 219 °C |
| O=C(N/N=C/c1cc(C(F)(F)F)ccc1O)c1ccc(Cl)cc1 [Example 440] | 252 to 254 °C |
| O=C(N/N=C/c1c(C(F)(F)F)ccc(Cl)c1O)c1ccc(Cl)cc1 [Example 452] | 236 to 238 °C |
